These results are taken from publication PMC10507085, “Pharmacological inhibition of TBK1/IKKε blunts immunopathology in a murine model of SARS-CoV-2 infection” (Nature Communications, 2023).

Holding throughout (assay): biochemical
Common to all, as to design: KINOMEscan competition binding, DNA-tagged kinase against immobilised ligand, qPCR read-out
What all share (conditions): read-out: Percent Control
(Quantitative PCR measures a nucleic acid by following its amplification.)

The target in experiment [1] is BRSK2 (Homo sapiens, UniProt Q8IWQ3).
BRSK2, sequence (Q8IWQ3 whole entry): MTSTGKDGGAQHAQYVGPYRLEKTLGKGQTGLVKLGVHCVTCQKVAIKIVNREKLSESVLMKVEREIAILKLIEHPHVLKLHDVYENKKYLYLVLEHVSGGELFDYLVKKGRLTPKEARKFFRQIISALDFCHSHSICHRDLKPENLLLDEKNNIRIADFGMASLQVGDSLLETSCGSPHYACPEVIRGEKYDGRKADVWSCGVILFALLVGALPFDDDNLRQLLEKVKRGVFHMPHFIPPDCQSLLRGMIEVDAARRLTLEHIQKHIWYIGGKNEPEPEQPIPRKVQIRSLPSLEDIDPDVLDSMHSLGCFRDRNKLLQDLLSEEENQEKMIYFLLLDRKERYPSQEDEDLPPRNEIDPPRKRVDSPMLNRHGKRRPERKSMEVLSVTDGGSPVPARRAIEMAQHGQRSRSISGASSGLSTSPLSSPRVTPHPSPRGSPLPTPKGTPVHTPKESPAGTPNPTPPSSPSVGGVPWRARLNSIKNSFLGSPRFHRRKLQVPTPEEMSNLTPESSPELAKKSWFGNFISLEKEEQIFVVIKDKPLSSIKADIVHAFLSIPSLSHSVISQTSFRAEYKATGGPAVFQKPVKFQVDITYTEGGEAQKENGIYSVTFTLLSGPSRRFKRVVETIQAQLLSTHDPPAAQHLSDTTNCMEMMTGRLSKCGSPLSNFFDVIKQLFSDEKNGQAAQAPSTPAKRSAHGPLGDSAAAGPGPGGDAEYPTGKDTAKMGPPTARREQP
For experiment [2], the target named is CAMKK1 (Homo sapiens, UniProt Q8N5S9).
CAMKK1, sequence (Q8N5S9 whole entry): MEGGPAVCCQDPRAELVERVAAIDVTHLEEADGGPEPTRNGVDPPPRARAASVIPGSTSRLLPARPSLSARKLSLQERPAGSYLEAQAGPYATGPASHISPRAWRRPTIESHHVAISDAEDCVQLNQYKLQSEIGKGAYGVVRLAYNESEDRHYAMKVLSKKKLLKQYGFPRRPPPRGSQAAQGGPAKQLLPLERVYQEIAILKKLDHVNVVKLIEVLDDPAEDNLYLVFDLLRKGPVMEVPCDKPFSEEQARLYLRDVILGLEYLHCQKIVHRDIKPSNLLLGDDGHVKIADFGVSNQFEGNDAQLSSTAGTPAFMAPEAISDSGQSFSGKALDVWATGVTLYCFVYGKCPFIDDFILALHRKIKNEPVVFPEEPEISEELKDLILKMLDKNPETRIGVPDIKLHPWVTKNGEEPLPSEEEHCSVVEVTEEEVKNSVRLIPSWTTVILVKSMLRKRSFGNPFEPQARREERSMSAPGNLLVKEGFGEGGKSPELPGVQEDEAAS
Experiment [3] deals with CASK (Homo sapiens, UniProt O14936).
The target of experiment [4] is CDK14 (Homo sapiens, UniProt O94921).
CDK14, sequence (O94921 whole entry): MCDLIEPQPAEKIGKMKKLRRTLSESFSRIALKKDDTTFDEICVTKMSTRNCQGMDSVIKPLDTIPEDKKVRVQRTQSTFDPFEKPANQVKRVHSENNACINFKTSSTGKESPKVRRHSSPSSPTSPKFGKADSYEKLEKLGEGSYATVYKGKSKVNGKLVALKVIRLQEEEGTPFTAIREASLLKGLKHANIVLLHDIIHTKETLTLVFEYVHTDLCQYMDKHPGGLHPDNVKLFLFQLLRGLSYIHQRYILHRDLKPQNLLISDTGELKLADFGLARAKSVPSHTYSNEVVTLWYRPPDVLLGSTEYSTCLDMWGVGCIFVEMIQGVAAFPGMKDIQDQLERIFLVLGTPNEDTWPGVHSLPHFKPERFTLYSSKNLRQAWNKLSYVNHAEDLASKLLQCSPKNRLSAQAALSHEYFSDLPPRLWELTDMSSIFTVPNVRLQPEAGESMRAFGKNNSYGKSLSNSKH
For experiment [5], the target named is CHEK1 (Homo sapiens, UniProt O14757).
Experiment [6] concerns the target EGFR (Homo sapiens, UniProt P00533).
Experiment [7] concerns the target FRK (Homo sapiens, UniProt P42685).
Experiment [8] concerns the target GRK7 (Homo sapiens, UniProt Q8WTQ7).
The target in experiment [9] is HIPK3 (Homo sapiens, UniProt Q9H422).
Experiment [10] concerns the target MAP2K1 (Homo sapiens, UniProt Q02750).
Experiment [11] concerns the target MAP3K13 (Homo sapiens, UniProt O43283).
Experiment [12] has as its target MAPK9 (Homo sapiens, UniProt P45984).
In experiment [13] the target is PDGFRB (Homo sapiens, UniProt P09619).
Experiment [14] addresses PIK3C2G (Homo sapiens, UniProt O75747).
Experiment [15] addresses PIP5K1A (Homo sapiens, UniProt Q99755).
Experiment [16] has as its target T1, RPS6KA4(Kin.Dom.1-N-terminal) (Homo sapiens, UniProt O75676).
T1 construct: Kin.Dom.1 N-terminal

Experiment [17] has as its target TIE1 (Homo sapiens, UniProt P35590).
Experiment [18] deals with TSSK3 (Homo sapiens, UniProt Q96PN8).
TSSK3, sequence (Q96PN8 whole entry): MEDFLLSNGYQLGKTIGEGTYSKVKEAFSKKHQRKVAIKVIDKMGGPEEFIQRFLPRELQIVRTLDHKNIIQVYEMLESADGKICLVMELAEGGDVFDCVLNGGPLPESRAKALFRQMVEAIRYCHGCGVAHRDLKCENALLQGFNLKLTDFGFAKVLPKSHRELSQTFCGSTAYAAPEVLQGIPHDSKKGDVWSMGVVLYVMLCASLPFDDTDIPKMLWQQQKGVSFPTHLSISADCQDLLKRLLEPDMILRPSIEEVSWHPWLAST
In experiment [19] the target is TTK (Homo sapiens, UniProt P33981).
TTK, sequence (P33981 whole entry): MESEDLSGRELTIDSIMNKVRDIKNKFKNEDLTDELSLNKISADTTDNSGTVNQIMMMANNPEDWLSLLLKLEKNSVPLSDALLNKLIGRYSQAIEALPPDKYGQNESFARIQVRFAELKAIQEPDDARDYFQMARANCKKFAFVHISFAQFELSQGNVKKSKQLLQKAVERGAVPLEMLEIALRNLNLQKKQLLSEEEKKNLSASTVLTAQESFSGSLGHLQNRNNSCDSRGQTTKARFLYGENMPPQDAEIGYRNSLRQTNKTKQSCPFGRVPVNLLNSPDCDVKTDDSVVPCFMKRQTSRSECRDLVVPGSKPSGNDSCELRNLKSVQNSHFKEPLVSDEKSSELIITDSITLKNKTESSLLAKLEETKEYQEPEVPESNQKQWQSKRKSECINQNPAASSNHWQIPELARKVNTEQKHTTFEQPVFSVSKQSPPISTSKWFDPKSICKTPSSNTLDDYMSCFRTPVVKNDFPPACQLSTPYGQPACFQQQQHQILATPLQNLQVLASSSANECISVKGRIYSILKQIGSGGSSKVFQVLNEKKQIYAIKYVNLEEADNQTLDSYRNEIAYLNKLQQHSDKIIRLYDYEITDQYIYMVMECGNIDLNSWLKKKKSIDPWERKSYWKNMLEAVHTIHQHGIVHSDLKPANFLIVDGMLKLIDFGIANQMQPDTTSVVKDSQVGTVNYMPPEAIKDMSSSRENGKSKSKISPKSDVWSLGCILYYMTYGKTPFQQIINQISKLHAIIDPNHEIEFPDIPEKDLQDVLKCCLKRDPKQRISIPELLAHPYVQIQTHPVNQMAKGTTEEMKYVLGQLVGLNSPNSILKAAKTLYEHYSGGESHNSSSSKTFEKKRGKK
The target in experiment [20] is ULK3 (Homo sapiens, UniProt Q6PHR2).
ULK3, sequence (Q6PHR2 whole entry): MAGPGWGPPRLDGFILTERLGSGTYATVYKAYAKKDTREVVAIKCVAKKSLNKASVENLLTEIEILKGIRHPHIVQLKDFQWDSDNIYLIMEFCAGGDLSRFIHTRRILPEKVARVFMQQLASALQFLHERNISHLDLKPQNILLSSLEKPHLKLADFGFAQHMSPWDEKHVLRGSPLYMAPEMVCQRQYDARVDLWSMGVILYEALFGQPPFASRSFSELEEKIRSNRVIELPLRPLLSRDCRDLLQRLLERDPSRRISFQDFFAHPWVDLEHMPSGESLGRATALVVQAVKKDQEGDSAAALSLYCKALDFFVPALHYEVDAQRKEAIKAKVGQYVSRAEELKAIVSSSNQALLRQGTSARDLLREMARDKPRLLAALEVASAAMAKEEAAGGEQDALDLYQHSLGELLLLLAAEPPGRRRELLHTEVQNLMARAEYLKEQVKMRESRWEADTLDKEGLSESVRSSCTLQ

MAP2K1, sequence (Q02750 whole entry): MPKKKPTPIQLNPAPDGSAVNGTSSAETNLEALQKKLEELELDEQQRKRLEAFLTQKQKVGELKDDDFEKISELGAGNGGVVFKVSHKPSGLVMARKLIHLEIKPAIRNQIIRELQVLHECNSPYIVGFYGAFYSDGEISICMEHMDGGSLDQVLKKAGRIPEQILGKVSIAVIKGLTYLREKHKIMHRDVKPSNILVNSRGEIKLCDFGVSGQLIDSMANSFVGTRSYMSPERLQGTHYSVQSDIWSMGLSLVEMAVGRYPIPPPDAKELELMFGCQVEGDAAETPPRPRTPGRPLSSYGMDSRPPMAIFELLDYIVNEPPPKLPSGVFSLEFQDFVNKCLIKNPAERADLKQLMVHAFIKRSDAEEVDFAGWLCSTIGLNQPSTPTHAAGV
MAPK9, sequence (P45984 whole entry): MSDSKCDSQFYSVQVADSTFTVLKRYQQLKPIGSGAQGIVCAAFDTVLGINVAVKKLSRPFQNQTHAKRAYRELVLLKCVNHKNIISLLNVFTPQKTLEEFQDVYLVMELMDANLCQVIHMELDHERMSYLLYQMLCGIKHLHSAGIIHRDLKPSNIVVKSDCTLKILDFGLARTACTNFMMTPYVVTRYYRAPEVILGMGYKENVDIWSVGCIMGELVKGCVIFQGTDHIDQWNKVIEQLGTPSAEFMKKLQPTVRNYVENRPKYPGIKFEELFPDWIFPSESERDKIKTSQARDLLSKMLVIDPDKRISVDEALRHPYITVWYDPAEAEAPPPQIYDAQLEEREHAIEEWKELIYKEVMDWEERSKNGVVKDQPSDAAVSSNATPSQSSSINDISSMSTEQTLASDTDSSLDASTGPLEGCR
T1 sequence (O75676 whole entry): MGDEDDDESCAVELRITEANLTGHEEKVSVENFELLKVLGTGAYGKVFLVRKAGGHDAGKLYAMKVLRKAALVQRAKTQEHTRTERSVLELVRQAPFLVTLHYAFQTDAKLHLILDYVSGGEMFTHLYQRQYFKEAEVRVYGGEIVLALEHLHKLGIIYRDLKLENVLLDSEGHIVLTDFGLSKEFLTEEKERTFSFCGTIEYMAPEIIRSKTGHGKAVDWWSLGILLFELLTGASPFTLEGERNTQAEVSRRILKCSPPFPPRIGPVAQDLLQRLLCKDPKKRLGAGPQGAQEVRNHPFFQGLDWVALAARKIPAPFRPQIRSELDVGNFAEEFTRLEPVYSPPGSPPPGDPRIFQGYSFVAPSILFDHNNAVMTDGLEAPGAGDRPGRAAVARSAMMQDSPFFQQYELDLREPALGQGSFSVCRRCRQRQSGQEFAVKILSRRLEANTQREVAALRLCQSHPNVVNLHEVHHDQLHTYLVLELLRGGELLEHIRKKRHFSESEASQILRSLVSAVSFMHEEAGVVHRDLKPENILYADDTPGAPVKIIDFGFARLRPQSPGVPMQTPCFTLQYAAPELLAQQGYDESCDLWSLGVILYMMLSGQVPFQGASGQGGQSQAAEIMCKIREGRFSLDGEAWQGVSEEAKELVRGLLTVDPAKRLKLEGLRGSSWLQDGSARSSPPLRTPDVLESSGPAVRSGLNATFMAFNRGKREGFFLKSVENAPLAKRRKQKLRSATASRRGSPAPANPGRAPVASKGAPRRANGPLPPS

Turning to `Oc1ccc(C2=Cc3ccc(O)cc3OC2)cc1` [compound 1, idronoxil], the remaining binding at 10 µM in experiment [1] stood at 84%; in experiment [2], 78%; in [3], 65%; in experiment [4], 95%; in experiment [5], 88%; in experiment [6], 83%. In addition, the remaining binding at 10 µM in experiment [7] was 78%; in [8], 100%; in experiment [9] it was 33%; in [10], 86%; in experiment [11], 84%; in experiment [12], 93%. Besides, the remaining binding at 10 µM is 18% in experiment [13]; 73% in experiment [14]; 75% in experiment [15]; 83% in experiment [16]; 84% in experiment [17]; 59% in experiment [18]. Besides, the results for the remaining binding at 10 µM in experiment [19] and in experiment [20] were 83% and 78%, respectively.
